# Data: patent publication US7906486B2, “Method of treating or preventing tissue deterioration, injury or damage due to disease of mucosa” (SciClone Pharmaceuticals, Inc., priority 2007, dated 2011)
# Several values for one entry are separate records, joined by “and”; a condition that tells them apart may be missing. Identical values can stand only once.
# How the values were obtained:
# [1] = Weights and survival (Example 2, SCI-02); format: in vivo, Syrian Golden Hamsters
# Description: All animals were weighed daily and their survival recorded, in order to assess possible differences in animal weight among treatment groups as an indication for mucositis severity and/or possible toxicity resulting from the treatments.
# The mean daily percent weight change data was evaluated. The saline treated control hamsters gained an average of 44.1% of their starting weight during the study. Hamsters in the group receiving SCV-07 100 μg/kg once daily on days −1 to 20 gained an average of 49.9% of their starting weight during the study. Hamsters in the group receiving SCV-07 at 100 μg/kg twice daily on days −1 to 20 gained an average of 61.3% of their starting weight during the study. Hamsters in the group receiving SCV-07 at 1 mg/kg once daily on days −1 to 20 gained an average of 63.4% of their starting weight during the study. Hamsters in the group receiving SCV-07 at 1 mg/kg twice daily on days −1 to 20 gained an average of 69.1% of their starting weight during the study. The significance of these differences was evaluated by calculating the area-under-the-curve (AUC) for the weight gain of each animal, and then comparing the different treatment groups using a One-Way ANOVA test.
# [2] = system: oral mucositis induced by cis-platin 5 mg/kg and radiation 35 Gy (left cheek pouch); assay: Oral mucositis induced by a combination of cisplatin and acute radiation in hamsters, mucositis scoring (Example 4, SCI-04); format: in vivo, Syrian Golden Hamsters; set-up: key: 0: Pouch completely healthy. No erythema or vasodilation.; 1: Light to severe erythema and vasodilation. No erosion of mucosa.; 2: Severe erythema and vasodilation. Erosion of superficial aspects of mucosa leaving denuded areas. Decreased stippling of mucosa.; 3: Formation of off-white ulcers in one or more places. Ulcers may have a yellow/gray due to pseudomembrane. Cumulative size of ulcers should equal about ¼ of the pouch. Severe erythema and vasodilation.; 4: Cumulative seize of ulcers should equal about ½ of the pouch. Loss of pliability. Severe erythema and vasodilation.; 5: Virtually all of pouch is ulcerated. Loss of pliability (pouch can only partially be extracted from mouth); conditions: Group 2 (SCV-07 10 μg/kg, day -1 to day 20), individual animal scores, two scores per animal
# Description: Forty Golden Syrian hamsters were prospectively randomized into four equally sized groups. Mucositis was induced on the left cheek pouch mucosa of golden Syrian hamsters by a single dose of cis-platin at 5 mg/kg given on day −1, and a single dose of radiation administered on day 0 at a dose of 35Gy. Beginning on day −1 and continuing once daily until day 20, SCV-07 was given by sub-cutaneous injection at doses of 10 μg/kg, 100 μg/kg or 1 mg/kg in a volume of 100 μL. Animals' activity and weight were evaluated daily. Beginning on day 6 and continuing on alternate days for the duration of the study, oral mucositis was evaluated using a standard scoring six point scale. The number of days of ulcerative mucositis was evaluated using a Chi-squared test of scores of ≧3 throughout the study, and the individual daily group scores were assessed with a Rank Sum Test.
# The chemo-radiation model of oral mucositis in hamsters, developed by the Principal Investigator, has proven to be an accurate, efficient and cost-effective technique to provide a preliminary evaluation of anti-mucositis compounds. In this model, hamsters received a single dose of cis-platin at 5 mg/kg on day −1, followed by a single dose of radiation of 35 Gy to the left cheek pouch on day 0, rather than the single dose of 40 Gy on day 0 that is used in acute radiation studies. The course of mucositis in this model is very similar to the acute radiation model and results in peak mucositis scores approximately 16-18 days following radiation.
# Hamsters received a single dose of cis-platin at 5 mg/kg on day −1 by intra-peritoneal injection, followed by a single dose of radiation of 35 Gy to the left cheek pouch on day 0. This was accomplished by anesthetizing the animals and everting the left buccal pouch, while protecting the rest of the animal's bodies with a lead shield. Test materials were given by sub-cutaneous injection once daily as detailed in Table 13. Mucositis was evaluated clinically starting on day 6, and continuing on alternate days until day 28. Test articles were given as from day −1 to day 20.
# The grade of mucositis was scored, beginning day 6, and for every second day thereafter, through and including day 28. The effect on mucositis of each drug treatment compared to placebo was assessed according to the following parameters:
# On each evaluation day, the number of animals with a blinded mucositis score of ≧3 in each drug treatment group was compared to the control group. Differences were compared on a cumulative basis and statistical significance was determined by chi-square analysis. Efficacy, in this analysis, is defined by a significant reduction in the number of days that a group of animals had ulcerations (scores 3) when compared to the control group.
# For each evaluation day the scores of the control group were compared to those of the treated groups using non-parametric rank sum analysis. Treatment success was considered as a statistically significant lowering of scores in the treated group on 2 or more days from day 6 to day 28.
# Forty (40) male Syrian Golden Hamsters were given an intraperitoneal injection of 5 mg/kg Cisplatin on day −1. On day 0 all animals were given an acute radiation dose of 35 Gy directed to their left buccal cheek pouch. This was accomplished by anesthetizing the animals and everting the left buccal pouch, while protecting the rest of the animals with a lead shield. Test materials were given by subcutaneous injection once daily as detailed in Table 13. Mucositis was evaluated clinically starting on Day 6, and continued on alternate days until day 28.
# In this study, mucositis was induced with a combination of Cis-platin and radiation. Cis-platin was given as a single injection (IP) of 5 mg/kg on day −1. Radiation was given as a single focal dose of 35 Gy on day 0. Radiation was generated with a Philips 160 kVp (kilovolt potential) (18.75-ma) X-ray source at a focal distance of 30 cm, with a 3.0 mm hardened Al filtration system. […]
structure (smiles),measurement,setting,value
"N[C@H](CCC(=O)N[C@@H](Cc1c[nH]c2ccccc12)C(=O)O)C(=O)O [SCV-07, γ-D-glutamyl-L-tryptophan]","average weight gain, % of starting weight during the study",[1]; 100 ug/kg once daily on days -1 to 20,49.9%
same,"P, weight gain greater than saline controls",[1]; 100 ug/kg twice daily,0.014
same,"average weight gain, % of starting weight during the study",[1]; 100 ug/kg twice daily on days -1 to 20,61.3%
same,"P, weight gain greater than saline controls",[1]; 1 mg/kg once daily,0.009
same,"average weight gain, % of starting weight during the study",[1]; 1 mg/kg once daily on days -1 to 20,63.4%
same,"P, weight gain greater than saline controls",[1]; 1 mg/kg twice daily,0.004
same,"average weight gain, % of starting weight during the study",[1]; 1 mg/kg twice daily on days -1 to 20,69.1%
same,"P, One-Way ANOVA of weight gain AUC, SCV-07 treated groups vs control group","[1]; all SCV-07 groups, significant differences",0.012
same,"Mucositis score, day 10",[2]; day 10,1
same,"Mucositis score, day 12",[2]; day 12,3
same,"Mucositis score, day 14",[2]; day 14,3
same,"Mucositis score, day 16",[2]; day 16,3 (14×) and 4 (2×)
same,"Mucositis score, day 18",[2]; day 18,3 (12×) and 4 (2×)
same,"Mucositis score, day 20",[2]; day 20,3 (12×) and 1
same,"Mucositis score, day 22",[2]; day 22,1 (4×) and 3 (8×)
same,"Mucositis score, day 24",[2]; day 24,1 (5×) and 3 (4×)
same,"Mucositis score, day 26",[2]; day 26,1 (11×) and 3 (4×)
same,"Mucositis score, day 28",[2]; day 28,0 (7×) and 1 (8×) and 3 (2×)
